Marks after values point to notes of the source that are not given here.
Legend:
Assay type in all cases: cell-based
[1] = tested on: A. actinomycetemcomitans virulence genes; assay: Virulence gene expression in multi-species biofilm (SYBR RT-qPCR)
Procedure: (§1) Biofilms are grown vertically on Calcium Deficient Hydroxyapatite (CAD-HA) disks (Hitemco Medical, Old Bethpage, USA) using the Amsterdam Active Adhesion model. Biofilms are allowed to establish during 24 h (37° C., 170 rpm) under microaerophilic conditions (6% O2, 7% CO2, 7% H2, 80% N2). After this 24 h, disks are rinsed 3 times a day for 3 minutes (RT, 250 rpm), for 3 consecutive days, by transferring the lid containing the disks to a new 24-well plate containing 2 mL/well of the appropriate substrate solution. As a negative control, PBS (pH 5.7) without substrate supplementation is used.
(§2) The virulence of the substrate-treated multi-species biofilms are evaluated by analyzing the relative expression of 33 genes that are recognized as being related to some form of virulence and from 4 periodontal pathogens.
(§3) Expression of bacterial virulence genes is analyzed through SYBR RT-qPCR and normalized for bacterial housekeeping gene expression. […] These effects are illustrated in Tables 6a and 6b:
(§4) Note, for Tables 6a and 6b, that fold changes in virulence gene expression are determined relative to the control condition through the 2^^-ΔΔCt method and are shown as the geometric mean (C.I.) (n = 3) of the 2^^-ΔΔ ^Ct values. All substrates are dissolved in PBS at a concentration of 1 M (upper part) or 1%(w/v) (lower part). Values between 0 and 1 represent relative downregulation, values >1 represent relative upregulation. […] NADG: N-acetyl-D-glucosamine; C.I.: 95% confidence interval.

[2] = tested on: P. gingivalis virulence genes; assay: as above; conditions: relative to control, 2^-ΔΔCt, n = 3
Procedure: as §1, §2, §3, §4

[3] = tested on: multi-species biofilm (beneficial/commensal species, periodontal pathogens, cariogenic pathogens); assay: Multi-species biofilm composition, relative proportions and group changes
Procedure: Biofilms are grown vertically on Calcium Deficient Hydroxyapatite (CAD-HA) disks (Hitemco Medical, Old Bethpage, USA) using the Amsterdam Active Adhesion model. […] After this 24 h, disks are rinsed 3 times a day for 3 minutes (RT, 250 rpm), for 3 consecutive days, by transferring the lid containing the disks to a new 24-well plate containing 2 mL/well of the appropriate substrate solution. As a negative control, PBS (pH 5.7) without substrate supplementation is used. N-acetyl-D-glucosamine (NADG), α-D-lactose, D-(+)-trehalose and D-(+)-raffinose are selected to determine their effects on multi-species biofilm composition. Repeated rinsing of the biofilms with the substrates at a concentration of 1 M results in a significant decrease in absolute numbers in at least four of the pathogenic bacterial species tested in the assay, in comparison to the control, the results of which are described in Table 1 below. Note, NADG decreased absolute numbers of S. sobrinus. Absolute abundances of bacterial species are shown as mean ± SD (n = 3) logarithmic values of the genome equivalents per millilitre (log(Geq/mL)).

[4] = tested on: F. nucleatum virulence genes; assay: Virulence gene expression in multi-species biofilm (SYBR RT-qPCR); conditions: relative to control = 1, 2^-ΔΔCt, n = 3
Procedure: as §1, §2, §3
as §4, with “Table 6c,” for “Tables 6a and 6b, that”, “2^^-ΔΔCt” for “2^^-ΔΔ ^Ct”

S. salivarius = assay: Multi-species biofilm composition, absolute abundance (Geq/mL); conditions: repeated rinsing
Procedure: as §1
(§5) N-acetyl-D-glucosamine (NADG), α-D-lactose, D-(+)-trehalose and D-(+)-raffinose are selected to determine their effects on multi-species biofilm composition. […] decrease in absolute numbers in at least four of the pathogenic bacterial species tested in the assay, in comparison to the control, the results of which are described in Table 1 below. Note, NADG decreased absolute numbers of S. sobrinus. Absolute abundances of bacterial species are shown as mean ± SD (n = 3) logarithmic values of the genome equivalents per millilitre (log(Geq/mL)).

S. sanguinis = assay: as above; conditions: repeated rinsing
Procedure: as §1, §5

V. parvula = assay: as above; conditions: for absolute abundance of V. parvula (VP), mean ± SD log (Geq/mL): repeated rinsing
Procedure: as §1, §5

F. nucleatum = assay: as above; conditions: repeated rinsing
Procedure: as §1, §5

S. mutans = assay: as above; conditions: repeated rinsing
Procedure: as §1, §5

A. viscosus = assay: as above; conditions: repeated rinsing
Procedure: as §1, §5

[5] = lower part of Table 6a, substrate 1%(w/v), relative to control = 1
[6] = substrate 1 M, relative to control = 1, 2^-ΔΔCt, n = 3
[7] = Table 1a, substrate 1 M, listed as α-D-lactose
[8] = Table 3, separate experiments, concentration not given

OC[C@H]1O[C@@H](O[C@H]2[C@H](O)[C@@H](O)[C@@H](O)O[C@@H]2CO)[C@H](O)[C@@H](O)[C@H]1O [D-lactose, α-D-lactose]
fold change in aae expression, geometric mean (95% C.I.) [1, 5]: 1.36 (0.70-2.67) fold | fold change in apaH expression, geometric mean (95% C.I.) [1, 5]: 0.84 (0.29-2.49) fold | fold change in cdtB expression, geometric mean (95% C.I.) [1, 5]: 0.66 (0.21-2.03) fold | fold change in emaA expression, geometric mean (95% C.I.) [1, 5]: 0.34 (0.25-0.45)^∗ fold | fold change in flp expression, geometric mean (95% C.I.) [1, 5]: 0.81 (0.08-7.83) fold | fold change in ltxA expression, geometric mean (95% C.I.) [1, 5]: 0.04 (0.02-0.08)^∗ fold | fold change in omp29 expression, geometric mean (95% C.I.) [1, 5]: 0.81 (0.73-0.89) fold | fold change in omp100 expression, geometric mean (95% C.I.) [1, 5]: 0.34 (0.23-0.49)^∗ fold | fold change in orf859 expression, geometric mean (95% C.I.) [1, 5]: 0.97 (0.37-2.54) fold | fold change in pgA expression, geometric mean (95% C.I.) [1, 5]: 0.55 (0.41-0.74) fold | fold change in vapA expression, geometric mean (95% C.I.) [1, 5]: 0.90 (0.60-1.35) fold | fold change in vppA expression, geometric mean (95% C.I.) [1, 5]: 0.40 (0.14-1.15)^∗ fold | fold change in aae expression, geometric mean (95% C.I.) [1, 6]: 0.03 (0.01-0.22)^∗ fold | fold change in apaH expression, geometric mean (95% C.I.) [1, 6]: 0.04 (0.01-0.21)^∗ fold | fold change in cdtB expression, geometric mean (95% C.I.) [1, 6]: 0.02 (0.00-0.21)^∗ fold | fold change in emaA expression, geometric mean (95% C.I.) [1, 6]: 0.08 (0.06-0.11)^∗ fold | fold change in flp expression, geometric mean (95% C.I.) [1, 6]: 0.44 (0.10-1.94) fold | fold change in ltxA expression, geometric mean (95% C.I.) [1, 6]: 0.01 (0.00-0.08)^∗ fold | fold change in omp29 expression, geometric mean (95% C.I.) [1, 6]: 0.42 (0.33-0.52)^∗ fold | fold change in omp100 expression, geometric mean (95% C.I.) [1, 6]: 0.08 (0.04-0.15)^∗ fold | fold change in orf859 expression, geometric mean (95% C.I.) [1, 6]: 0.05 (0.00-0.79)^∗ fold | fold change in pgA expression, geometric mean (95% C.I.) [1, 6]: 4.30 (2.21-8.37)^∗ fold | fold change in vapA expression, geometric mean (95% C.I.) [1, 6]: 0.22 (0.13-0.36)^∗ fold | fold change in vppA expression, geometric mean (95% C.I.) [1, 6]: 0.17 (0.06-0.43)^∗ fold | fold change in pgA expression, geometric mean (95% C.I.) ([1]; substrate 1 M, relative to control = 1, 2^-ΔΔCt, n = 3, listed as α-D-lactose): 4.3 fold | fold change in fimA expression, geometric mean (95% C.I.) ([2]; substrate 1 % (w/v)): 1.48 (0.27-8.02) fold | fold change in kgp expression, geometric mean (95% C.I.) ([2]; substrate 1 % (w/v)): 1.95 (0.45-8.59) fold | fold change in partC expression, geometric mean (95% C.I.) ([2]; substrate 1 % (w/v)): 0.47 (0.07-3.04) fold | fold change in rgpA expression, geometric mean (95% C.I.) ([2]; substrate 1 % (w/v)): 1.49 (0.70-3.20) fold | fold change in fimA expression, geometric mean (95% C.I.) ([2]; substrate 1 M): 0.06 (0.00-1.08)^∗ fold | fold change in kgp expression, geometric mean (95% C.I.) ([2]; substrate 1 M): <LOD | fold change in partC expression, geometric mean (95% C.I.) ([2]; substrate 1 M): 0.03 (0.01-0.17)^∗ fold | fold change in rgpA expression, geometric mean (95% C.I.) ([2]; substrate 1 M): 0.01 (0.00-4.60)^∗ fold | relative proportion of beneficial or commensal species in biofilm ([3]; Table 1a, substrate 1 M): 92.72 (+/- 4.39)^∗ % (Geq/mL) | relative proportion of cariogenic pathogens in biofilm ([3]; Table 1a, substrate 1 M): 5.82 (+/- 3.94) % (Geq/mL) | relative proportion of periodontal pathogens in biofilm ([3]; Table 1a, substrate 1 M): 1.46 (+/- 0.64)^∗ % (Geq/mL) | relative proportion of beneficial or commensal species in biofilm [3, 7]: 92.72±4.39 % (Geq/mL) | relative proportion of cariogenic pathogens in biofilm [3, 7]: 5.82±3.94 % (Geq/mL) | relative proportion of periodontal pathogens in biofilm [3, 7]: 1.46±0.64 % (Geq/mL) | relative proportion of beneficials/commensals in biofilm [3, 8]: 64.14 (+/- 9.81) % (Geq/mL) | relative proportion of cariogenic pathogens in biofilm [3, 8]: 0.21 (+/- 0.08) % (Geq/mL) | relative proportion of periodontal pathogens in biofilm [3, 8]: 35.65 (+/- 9.88) % (Geq/mL) | fold change in ABC transp. perm. (ABC transporter permease) expression, geometric mean (95% C.I.) ([4]; substrate 1% (w/v)): 0.25 (0.08-0.78)^∗ fold | fold change in EF-G expression, geometric mean (95% C.I.) ([4]; substrate 1% (w/v)): 0.13 (0.03-0.51)^∗ fold | fold change in but. -coA transf. (butyrate-acetoacetate CoA-transferase) expression, geometric mean (95% C.I.) ([4]; substrate 1% (w/v)): 0.57 (0.40-0.83) fold | fold change in hemin receptor expression, geometric mean (95% C.I.) ([4]; substrate 1% (w/v)): 0.17 (0.03-0.94)^∗ fold | fold change in hemolysin expression, geometric mean (95% C.I.) ([4]; substrate 1% (w/v)): 1.00 (0.60-1.68) fold | fold change in ompA expression, geometric mean (95% C.I.) ([4]; substrate 1% (w/v)): 1.13 (0.58-2.19) fold | fold change in transposase expression, geometric mean (95% C.I.) ([4]; substrate 1% (w/v)): 1.26 (0.51-3.13) fold | fold change in ABC transp. perm. (ABC transporter permease) expression, geometric mean (95% C.I.) ([4]; substrate 1 M): 16.97 (5.93-48.61)^∗ fold | fold change in EF-G expression, geometric mean (95% C.I.) ([4]; substrate 1 M): 1.54 (0.94-2.53) fold | fold change in but. -coA transf. (butyrate-acetoacetate CoA-transferase) expression, geometric mean (95% C.I.) ([4]; substrate 1 M): 3.88 (0.87-17.43)* fold | fold change in hemin receptor expression, geometric mean (95% C.I.) ([4]; substrate 1 M): 36.87 (17.27-78.74)^∗ fold | fold change in hemolysin expression, geometric mean (95% C.I.) ([4]; substrate 1 M): 6.34 (1.36-29.47)^∗ fold | fold change in ompA expression, geometric mean (95% C.I.) ([4]; substrate 1 M): 1.26 (0.79-2.03) fold | fold change in transposase expression, geometric mean (95% C.I.) ([4]; substrate 1 M): 172.87 (147.10-203.20)^∗ fold | absolute abundance of S. salivarius, mean ± SD log (Geq/mL) (S. salivarius; substrate 1% (w/v)): 2.65 ± 0.00 log (Geq/mL) | absolute abundance of S. salivarius, mean ± SD log (Geq/mL) (S. salivarius; substrate 1 M in PBS, n = 3): 6.95 ± 0.14^∗ log (Geq/mL) | absolute abundance of S. sanguinis, mean ± SD log (Geq/mL) (S. sanguinis; substrate 1% (w/v)): 8.99 ± 0.54 log (Geq/mL) | absolute abundance of S. sanguinis, mean ± SD log (Geq/mL) (S. sanguinis; substrate 1 M in PBS, n = 3): 5.80 ± 1.09 log (Geq/mL) | absolute abundance of V. parvula (VP), mean ± SD log (Geq/mL) (V. parvula; substrate 1% (w/v)): 9.92 ± 0.20 log (Geq/mL) | reduction of V. parvula numbers in comparison to the control (V. parvula; substrate 1 M): ~ 0.7 log(Geq/mL) | absolute abundance of V. parvula (VP), mean ± SD log (Geq/mL) (V. parvula; substrate 1 M in PBS, n = 3): 9.45 ± 0.15^∗ log (Geq/mL) | absolute abundance of F. nucleatum (Fn), mean ± SD log (Geq/mL) (F. nucleatum; substrate 1% (w/v)): 9.39 ± 0.42 log (Geq/mL) | absolute abundance of F. nucleatum (Fn), mean ± SD log (Geq/mL) (F. nucleatum; substrate 1 M in PBS, n = 3): 5.49 ± 0.46^∗ log (Geq/mL) | absolute abundance of S. mutans, mean ± SD log (Geq/mL) (S. mutans; substrate 1% (w/v)): 7.48 ± 0.14 log (Geq/mL) | absolute abundance of S. mutans, mean ± SD log (Geq/mL) (S. mutans; substrate 1 M in PBS, n = 3): 8.00 ± 0.56 log (Geq/mL) | absolute abundance of A. viscosus (Av), mean ± SD log (Geq/mL) (A. viscosus; substrate 1% (w/v)): 7.89 ± 0.13 log (Geq/mL) | absolute abundance of A. viscosus (Av), mean ± SD log (Geq/mL) (A. viscosus; substrate 1 M in PBS, n = 3): 6.78 ± 0.41 log (Geq/mL)
